The text below walks through data of PubChem BioAssay (NCI).

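All cell lines were grown in 96-well plates and treated with compound for 48 hours. GI50 = concentration required for 50% inhibition of growth. TGI: concentration producing complete growth inhibition.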 Where only a bound is given, the exact number is not on record here.

Holding throughout (test): NCI tumour cell line growth inhibition, 48 h
The subject of assay [1] is HOP-92 NSCLC.
Assay [2] concerns IGROV1 ovarian.
Assay [3] deals with MOLT-4 leukemia.
Assay [4] deals with UACC-62 melanoma.
Assay [5] concerns OVCAR-5 ovarian.
For assay [6], the system named is HCT-15 colon.
Assay [7] deals with SK-OV-3 ovarian.
In assay [8] the test system is RPMI-8226 leukemia.
In assay [9] the test system is HT29 colon.

For `O=S1(=O)c2ccccc2N=C(c2ccccc2Cl)CC1c1ccc(F)cc1` (stereo not given), the TGI in [1] was determined as 34.6 µM; in [2], 37.4 µM; in assay [3], 51.7 µM; in [4], 32 µM; in assay [5], 30.7 µM; in assay [6] it was 35.6 µM. In addition, the results for the TGI in assay [7] and in assay [8] were 89 µM and 14.4 µM, respectively.
In the case of `CC(=O)NC(CCCN(Cc1ccccc1)C(=O)N(C)N=O)C(=O)NCc1ccccc1` (stereo not given), the TGI in assay [1], in assay [2], in assay [9], in [3], in [4] and in assay [5] was over 100 µM each time. In addition, the TGI in assay [6], in assay [7] and in assay [8] was over 100 µM in each case.
Regarding `C#CCOCn1cnc2ncnc(N)c21`, the TGI in assay [1], in assay [2], in assay [9], in assay [3], in assay [4] and in assay [5] was over 100 µM each time. The TGI in assay [7] and in assay [8] was over 100 µM throughout.
For `CN(C)CN(C)c1nc(N(C)C)nc(N(C)CN(C)C)n1`, the TGI in [1] was over 100 µM; in [2], over 100 µM; in [9] it was over 100 µM; in assay [3], 69.5 µM; in [4] it was 40.9 µM; in assay [6] it was 68.2 µM. Further, the TGI is over 100 µM in assay [7] and 67.2 µM in assay [8].
As to `COc1cc(C(C#N)NNc2nc(C)cc(=O)[nH]2)cc(OC)c1OC` (stereo not given), the TGI in [1], in assay [2], in assay [9], in assay [4], in assay [5] and in assay [6] was over 100 µM each time. The TGI in assay [7] and in assay [8] was over 100 µM each time.
Consider `O=C(/C=C/C1C(=O)NC(=O)NC1=O)CC(=O)C(=O)Nc1cc(Cl)c(Cl)cc1Cl`, for which the TGI in assay [2], in [9], in [3], in assay [4], in assay [5] and in assay [6] was over 100 µM throughout. The TGI in assay [7] and in assay [8] was over 100 µM throughout.
For the compound `c1ccc(-c2ccnc3c2ccc2c(-c4ccccc4)ccnc23)cc1`, the TGI worked out at 18.2 µM in assay [2]; 10.8 µM in assay [9]; 2.93 µM in assay [3]; 2.25 µM in assay [4]; 11.8 µM in assay [5]; 11.6 µM in assay [7].
As for `CC(C)(C)Sc1nnc(SC(C)(C)C)c2c(=O)[nH]nc(SC(C)(C)C)c12`, the TGI in [1] was 14.1 µM; in assay [2], 22 µM; in assay [9] it was 19.1 µM; in assay [3], 15.7 µM; in assay [4], 22.2 µM; in [5], 16.9 µM. In addition, the TGI in assay [6] stood at 16.4 µM; in assay [7] it was 32.5 µM; in assay [8] it was 12.2 µM.
As for `C/C(=N\NS(=O)(=O)c1ccc([N+](=O)[O-])cc1)c1ccc[n+]([O-])n1`, the TGI in [1] came to 8.3 µM; in [2], 20.9 µM; in assay [9] it was 3.98 µM; in assay [3], 11.5 µM; in assay [4], 2.59 µM; in assay [5] it was 6.1 µM. Besides, the values for the TGI in [6], in assay [7] and in assay [8] were 24.9 µM, 7.24 µM and 7.17 µM, respectively.
Take `CCOC(=O)CC(NC(=O)c1ccc(N=NN(C)C)cc1)C(=O)OCC` (stereo not given): the TGI in [2], in assay [9], in assay [3], in [4], in assay [5] and in assay [6] was over 100 µM throughout. Moreover, the TGI in assay [7] and in assay [8] was over 100 µM in each case.
As for `Oc1ccc(Cl)cc1/C=N\NC(=S)N/N=C/c1cc(Cl)ccc1O`, the GI50 is 1.92 µM in assay [1]; 2.52 µM in assay [2]; 5.13 µM in [9]; 2.23 µM in assay [3]; 1.74 µM in assay [4]; 5.04 µM in assay [5]. For the same compound, the GI50 was 0.997 µM in assay [6] and 3.45 µM in assay [8]. In addition, the TGI in assay [1] was 14.7 µM; in assay [2], over 100 µM; in assay [9], 54.4 µM; in assay [3], 7.62 µM; in assay [4], 7.57 µM; in assay [5], over 100 µM. Moreover, the TGI in assay [6] was over 100 µM; in assay [8] it was 34.9 µM.
Regarding `O=c1c2ccccc2nc(-c2ccccc2)n1NC(=S)Nc1cccc(Cl)c1`, the TGI in assay [1] is 94.5 µM; in assay [2], over 100 µM; in assay [9], over 100 µM; in assay [3], over 100 µM; in assay [4], over 100 µM; in assay [5] it was over 100 µM. Besides, the TGI in [6], in assay [7] and in assay [8] was over 100 µM throughout.
In the case of `COc1ccc(C)cc1C1CCC(=O)O1` (stereo not given), the TGI in assay [2], in assay [9], in [3], in assay [4], in assay [5] and in [6] was over 100 µM each time. Also, the TGI in [7] and in assay [8] was over 100 µM each time.
Regarding `O=C1CCC(=O)c2sccc2N1`, the TGI in assay [1], in [2], in [9], in assay [3], in assay [5] and in assay [6] was over 100 µM each time. For the same compound, the TGI in assay [7] and in assay [8] was over 100 µM each time.
In the case of `Cn1nc(-c2ccccc2)c(C(=O)/C=C/c2ccc(Cl)cc2)c(N2CCCC2)c1=O`, the TGI in assay [1] is 6.94 µM; in assay [2], 27.9 µM; in [9] it was 15.3 µM; in [3] it was 6.66 µM; in assay [4], 22.4 µM; in [6], over 100 µM. Also, the TGI worked out at 18.8 µM in assay [7] and 7.84 µM in assay [8].
